Measurements reported in patent publication US20240174634A1, “Aldehyde Dehydrogenase Inhibitors and Their Therapeutic Use” (priority 2020, published 2024).

These compounds were tested against T1, ALDH2 (Homo sapiens, UniProt P05091) (assay: Selectivity biochemical assay, NAD(P)H-Glo Detection System).
T1 sequence (P05091 18-517): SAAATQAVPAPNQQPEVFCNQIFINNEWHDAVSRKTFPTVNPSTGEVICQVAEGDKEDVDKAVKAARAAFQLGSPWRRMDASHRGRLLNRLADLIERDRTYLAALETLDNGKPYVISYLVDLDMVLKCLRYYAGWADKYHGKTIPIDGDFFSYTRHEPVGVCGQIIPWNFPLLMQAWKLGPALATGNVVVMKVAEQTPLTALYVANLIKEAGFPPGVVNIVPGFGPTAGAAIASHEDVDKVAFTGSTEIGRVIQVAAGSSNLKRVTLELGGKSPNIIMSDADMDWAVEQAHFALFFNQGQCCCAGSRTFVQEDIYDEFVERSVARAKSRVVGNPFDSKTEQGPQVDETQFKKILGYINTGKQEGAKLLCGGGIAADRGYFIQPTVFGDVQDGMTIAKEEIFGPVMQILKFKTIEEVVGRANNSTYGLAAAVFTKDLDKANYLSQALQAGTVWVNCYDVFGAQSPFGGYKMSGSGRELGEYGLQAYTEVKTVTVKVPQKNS
Method: Materials: ALDH2 was purchased from Abnova. Tris(hydroxymethyl)aminomethane (Tris) was purchased from MP Biomedicals. TCEP, ethylenediaminetetraacetic acid (EDTA), propionaldehyde, DMSO and Tween-20 were purchased from Sigma. Nicotinamide adenine dinucleotide (NAD) was obtained from Abcam. The NAD(P)H-Glo™ Detection System was purchased from Promega. White, non-binding surface, 384 well plates were supplied by Corning (#3574).
Method: Inhibition of ALDH1A3 was assessed using the NAD(P)H-Glo™ Detection System (Cat. No. G9062) from Promega. This assay detects the production of NADH from NAD by ALDH1A3 via the coupled enzymatic conversion of a proluciferin reductase substrate to generate a luminescent signal. Inhibition of ALDH1A3 by small molecule inhibitors will result in reduction or abrogation of luminescence signal increase above background. Inhibition of ALDH1A1, ALDH1A2 and ALDH2 (selectivity assays) were assessed using the same assay.
Compounds were dosed into Corning 384 well assay plates using an Echo acoustic dispenser to give 10 point curves in a 3-fold dilution series. Compounds were dispensed from a 20 mM DMSO stock and initially screened at a top concentration of 20 μM (ALDH1A3) or 250 μM (ALDH1A1, ALDH1A2 & ALDH2). Enzyme was added to the plate in a 5 μL volume, according to the final concentrations in table 1 below, and pre-incubated with compound for 30 minutes at room temperature before the addition of 5 μL of the substrate (propionaldehyde) and cofactor (NAD), to effect final concentrations equal to the Km as shown in Table 1. The assay buffer used consisted of 40 mM Tris for 1A1 (pH 7.6), 1A2 (pH 7.6) and 1A3 (pH 9.0) and 10 mM Tris for ALDH2 (pH 8.0) supplemented with 1 mM TCEP, 0.01% Tween-20, 0.1 mM EDTA. The reaction mix was incubated at 26° C. on a shaking incubator for 30 minutes before being stopped by the addition of 10 μL of the Promega detection reagent and 100×IC50 of inhibitors of the respective isoforms. After stopping the reaction the plate was incubated for 60 minutes at room temperature and the luminescence signal read on a PheraStar FS microplate reader (BMG Labtech) and resulting IC50 values were calculated using Dotmatics software.
Enzyme, substrate and cofactor concentrations were selected to ensure the reaction ran under initial velocity conditions.

Row | SMILES | IC50
1 | O=C1CCc2cc(OCCN3CC(O)CC3c3cccc(F)c3)ccc2N1 (mixture of isomers) [ALDHI-2035, 6-[2-[2-(3-fluorophenyl)-4-hydroxy-pyrrolidin-1-yl]ethoxy]-3,4-dihydro-1H-quinolin-2-one] | ≥ 100 µM
2 | CC1CN(CCOc2ccc3c(c2)CCC(=O)N3)C(c2ccccc2)CO1 (mixture of isomers) [ALDHI-2042, 6-[2-(2-methyl-5-phenyl-morpholin-4-yl)ethoxy]-3,4-dihydro-1H-quinolin-2-one] | ≥ 100 µM
3 | O=C1CCc2cc(NC(=O)c3sc(N4CCOCC4)nc3-c3cccc(F)c3)ccc2N1 [ALDHI-1001, 4-(3-fluorophenyl)-2-morpholino-N-(2-oxo-3,4-dihydro-1H-quinolin-6-yl)thiazole-5-carboxamide] | ≥ 100 µM
4 | CN(C)c1nc(-c2cccc(F)c2)c(C(=O)Nc2ccc3c(c2)CCC(=O)N3)s1 [ALDHI-1002, 2-(dimethylamino)-4-(3-fluorophenyl)-N-(2-oxo-3,4-dihydro-1H-quinolin-6-yl)thiazole-5-carboxamide] | ≥ 100 µM
5 | O=C1CCc2cc(NC(=O)c3scnc3-c3cccc(F)c3)ccc2N1 [ALDHI-1003, 4-(3-fluorophenyl)-N-(2-oxo-3,4-dihydro-1H-quinolin-6-yl)thiazole-5-carboxamide] | ≥ 100 µM
6 | O=C1CCc2cc(NC(=O)c3sc(N4CC(O)C4)nc3-c3cccc(F)c3)ccc2N1 [ALDHI-1004, 4-(3-fluorophenyl)-2-(3-hydroxyazetidin-1-yl)-N-(2-oxo-3,4-dihydro-1H-quinolin-6-yl)thiazole-5-carboxamide] | ≥ 100 µM
7 | O=C1CCc2cc(NC(=O)c3sc(N4CCNCC4)nc3-c3cccc(F)c3)ccc2N1 [ALDHI-1005, 4-(3-fluorophenyl)-N-(2-oxo-3,4-dihydro-1H-quinolin-6-yl)-2-piperazin-1-yl-thiazole-5-carboxamide] | ≥ 100 µM
8 | O=C1CCc2cc(NC(=O)c3c[nH]nc3-c3cccc(F)c3)ccc2N1 [ALDHI-1006, 3-(3-fluorophenyl)-N-(2-oxo-1,2,3,4-tetrahydroquinolin-6-yl)-1H-pyrazole-4-carboxamide] | 10 to 100 µM
9 | O=C1CCc2cc(NC(=O)c3ccccc3-c3cccc(F)c3)ccc2N1 [ALDHI-1007, 3′-fluoro-N-(2-oxo-1,2,3,4-tetrahydroquinolin-6-yl)-[1,1′-biphenyl]-2-carboxamide] | ≥ 100 µM
10 | Cc1noc(-c2ccccc2C(=O)Nc2ccc3c(c2)CCC(=O)N3)n1 [ALDHI-1008, 2-(3-methyl-1,2,4-oxadiazol-5-yl)-N-(2-oxo-1,2,3,4-tetrahydroquinolin-6-yl)benzamide] | ≥ 100 µM
11 | O=C1CCc2cc(NC(=O)c3ncsc3-c3cccnc3)ccc2N1 [ALDHI-1010, N-(2-oxo-3,4-dihydro-1H-quinolin-6-yl)-5-(3-pyridyl)thiazole-4-carboxamide] | ≥ 100 µM
12 | O=C1CCc2cc(NC(=O)c3ncsc3-c3ccsc3)ccc2N1 [ALDHI-1011, N-(2-oxo-3,4-dihydro-1H-quinolin-6-yl)-5-(3-thienyl)thiazole-4-carboxamide] | ≥ 100 µM
13 | O=C1CCc2cc(NC(=O)c3scnc3-c3ccccc3Cl)ccc2N1 [ALDHI-1012, 4-(2-chlorophenyl)-N-(2-oxo-3,4-dihydro-1H-quinolin-6-yl)thiazole-5-carboxamide] | ≥ 100 µM
14 | Cc1cccc(-c2ncsc2C(=O)Nc2ccc3c(c2)CCC(=O)N3)c1 [ALDHI-1013, 4-(m-tolyl)-N-(2-oxo-3,4-dihydro-1H-quinolin-6-yl)thiazole-5-carboxamide] | ≥ 100 µM
15 | O=C1CCc2cc(NC(=O)c3ncsc3-c3cccc(F)c3)ccc2N1 [ALDHI-1014, 5-(3-fluorophenyl)-N-(2-oxo-3,4-dihydro-1H-quinolin-6-yl)thiazole-4-carboxamide] | ≥ 100 µM
16 | O=C1COc2cc(NC(=O)c3scnc3-c3cccc(F)c3)ccc2N1 [ALDHI-1016, 4-(3-fluorophenyl)-N-(3-oxo-4H-1,4-benzoxazin-7-yl)thiazole-5-carboxamide] | ≥ 100 µM
17 | O=C1CCc2cc(NC(=O)c3scnc3-c3ccc(F)cc3)ccc2N1 [ALDHI-1017, 4-(4-fluorophenyl)-N-(2-oxo-1,2,3,4-tetrahydroquinolin-6-yl)thiazole-5-carboxamide] | ≥ 100 µM

Row | SMILES | IC50
18 | O=C1CCc2cc(NC(=O)c3cncnc3-c3cccc(F)c3)ccc2N1 [ALDHI-1018, 4-(3-fluorophenyl)-N-(2-oxo-3,4-dihydro-1H-quinolin-6-yl)pyrimidine-5-carboxamide] | ≥ 100 µM
19 | O=C1CCc2cc(NC(=O)c3ocnc3-c3cccc(F)c3)ccc2N1 [ALDHI-1019, 4-(3-fluorophenyl)-N-(2-oxo-3,4-dihydro-1H-quinolin-6-yl)oxazole-5-carboxamide] | ≥ 100 µM
20 | O=C1CCc2cc(NC(=O)c3scnc3-c3ccccc3F)ccc2N1 [ALDHI-1021, 4-(2-fluorophenyl)-N-(2-oxo-3,4-dihydro-1H-quinolin-6-yl)thiazole-5-carboxamide] | ≥ 100 µM
21 | O=C1CCc2cc(NC(=O)c3sccc3-c3cccc(F)c3)ccc2N1 [ALDHI-1022, 3-(3-fluorophenyl)-N-(2-oxo-3,4-dihydro-1H-quinolin-6-yl)thiophene-2-carboxamide] | ≥ 100 µM
22 | O=C1CCc2cc(NC(=O)c3scnc3-c3cccs3)ccc2N1 [ALDHI-1023, N-(2-oxo-3,4-dihydro-1H-quinolin-6-yl)-4-(2-thienyl)thiazole-5-carboxamide] | ≥ 100 µM
23 | O=C1CCc2cc(OCCN3CCCC3c3cccc(F)c3)ccc2N1 (stereo not shown) [ALDHI-2001, 6-[2-[2-(3-fluorophenyl)pyrrolidin-1-yl]ethoxy]-3,4-dihydro-1H-quinolin-2-one] | ≥ 100 µM
24 | O=C1CCc2cc(OCCN3CCCC3c3ccccc3F)ccc2N1 (stereo not shown) [ALDHI-2002, 6-[2-[2-(2-fluorophenyl)pyrrolidin-1-yl]ethoxy]-3,4-dihydro-1H-quinolin-2-one] | ≥ 100 µM
25 | O=C1CCc2cc(OCCN3CCCC3c3ccc(F)cc3)ccc2N1 (stereo not shown) [ALDHI-2003, 6-[2-[2-(4-fluorophenyl)pyrrolidin-1-yl]ethoxy]-3,4-dihydro-1H-quinolin-2-one] | 10 to 100 µM
26 | O=C1CCc2cc(OCCN3CCCC3c3ccncc3)ccc2N1 (stereo not shown) [ALDHI-2004, 6-[2-[2-(4-pyridyl)pyrrolidin-1-yl]ethoxy]-3,4-dihydro-1H-quinolin-2-one] | ≥ 100 µM
27 | O=C1CCc2cc(OCCN3CCCC3c3cccnc3)ccc2N1 (stereo not shown) [ALDHI-2005, 6-[2-[2-(3-pyridyl)pyrrolidin-1-yl]ethoxy]-3,4-dihydro-1H-quinolin-2-one] | ≥ 100 µM
28 | O=C1CCc2cc(OCCN3CCCC3c3ccccn3)ccc2N1 (stereo not shown) [ALDHI-2006, 6-[2-[2-(2-pyridyl)pyrrolidin-1-yl]ethoxy]-3,4-dihydro-1H-quinolin-2-one] | ≥ 100 µM
29 | O=C1CCc2cc(OCCN3CCC[C@@H]3c3cccc(F)c3)ccc2N1 [ALDHI-2007, 6-[2-[(2R)-2-(3-fluorophenyl)pyrrolidin-1-yl]ethoxy]-3,4-dihydro-1H-quinolin-2-one] | ≥ 100 µM
30 | O=C1CSc2cc(OCCN3CCCC3c3cccc(F)c3)ccc2N1 (stereo not shown) [ALDHI-2008, 7-[2-[2-(3-fluorophenyl)pyrrolidin-1-yl]ethoxy]-4H-1,4-benzothiazin-3-one] | ≥ 100 µM
31 | O=C1COc2cc(OCCN3CCCC3c3cccc(F)c3)ccc2N1 (stereo not shown) [ALDHI-2009, 7-[2-[2-(3-fluorophenyl)pyrrolidin-1-yl]ethoxy]-4H-1,4-benzoxazin-3-one] | ≥ 100 µM
32 | Cc1ccc(C2CCCN2CCOc2ccc3c(c2)CCC(=O)N3)cc1 (stereo not shown) [ALDHI-2010, 6-[2-[2-(p-tolyl)pyrrolidin-1-yl]ethoxy]-3,4-dihydro-1H-quinolin-2-one] | ≥ 100 µM
33 | Cc1cccc(C2CCCN2CCOc2ccc3c(c2)CCC(=O)N3)c1 (stereo not shown) [ALDHI-2011, 6-[2-[2-(m-tolyl)pyrrolidin-1-yl]ethoxy]-3,4-dihydro-1H-quinolin-2-one] | ≥ 100 µM
34 | Cc1ccccc1C1CCCN1CCOc1ccc2c(c1)CCC(=O)N2 (stereo not shown) [ALDHI-2012, 6-[2-[2-(o-tolyl)pyrrolidin-1-yl]ethoxy]-3,4-dihydro-1H-quinolin-2-one] | ≥ 100 µM
